The text below walks through data of patent publication US12305171B2, “Compositions and methods for treating cancer” (bioAffinity Technologies, Inc., priority 2018, dated 2025).

The structures appear in SMILES notation.

For assay [1], the system named is DU145. Kind of assay: functional siRNA cell proliferation assay (CTG assay, microscopy). Type of assay: cell-based. Conditions: DU-145 (Prostate); 4 txns; 7 days expt; n=6. An excerpt:
(§1) FIGS. 10 A-E illustrate graphs of the effects of siCD320 and siLRP2 on cell proliferation—Cell lines representative of several types of cancers (breast, prostate, skin) were transfected with individual or combinations of siRNAs targeting CD320 (OSC17, OSC47) or LRP2 (05L231, OSL245) as indicated. Cells were repeatedly transfected as outlined in Table 9 for efficient toxicity, then assayed for viability by the CTG assay. Doxorubicin-treated cells served as a positive control for cell toxicity in our assays (Table 8).
FIGS. 11A-B illustrate the effects of siCD320 and siLRP2 molar proportions on cell proliferation with different molar proportions of siRNA targeting CD320 and siRNA targeting LRP2. Cell lines representative of two types of cancers (breast, prostate) were transfected with different proportions of siRNAs targeting CD320 (OSC17) or LRP2 (05L245) (0-20 nM) or a negative control siRNA (OSS2) as indicated. Cells were repeatedly transfected for efficient toxicity then assayed for viability by the CTG assay. Doxorubicin-treated cells served as a positive control for cell toxicity in our assays (Table 8).
FIGS. 16 A-D illustrate plated cells showing the effects of siCD320 and siLRP2 on four cell lines. […] Cells were repeatedly transfected for efficient toxicity as in Table 9 and then analyzed by microscopy as indicated. […]

Assay [2] deals with GM05659. Kind of assay: functional siRNA cell proliferation screening (CTG assay). Type of assay: cell-based. Conditions: GM05659 (Normal); 4 txns; 7 days expt; n=3. How it is done: as §1, with “9” for “10”, “percent cell survival” for “effects”, “(lung, brain) or normal fibroblasts” for “(breast, prostate, skin)”, “OSL245), individually at 20 nM or in combination (10 nM each), or a negative control siRNA (OSS2) (20 nM)” for “OSL245)”
as §1
(§2) Referring now to FIG. 16, treatment of breast, prostate, and skin cancer cells with an inhibitor of CD320 receptor or an inhibitor of LRP2 receptor or a combination of both in an amount effective to inhibit proliferation of the cancer cells as compared to the control cells treated with control siRNA is illustrated. MDA-MB-231, DU145, LnCAP, and MDA-MB-435S cells were plated at 20,000 cells per well in a 24-well plate. The next day, the cells were transected with 20 nM of indicated siRNAs to knock down CD320, LRP2, or scrambled control. For the combination of siRNAs, cells were treated with 10 nM of each siRNA for 20 nM total treatments. The indicated pictures of the cells were taken at the end of the experiment.

The test system of assay [3] is HCC15. Described as above. In kind it is cell-based. Particulars: HCC15 (Lung); 2 txns; 7 days expt; n=3. How it is done:
as §1, with “9” for “10”, “percent cell survival” for “effects”, “(lung, brain) or normal fibroblasts” for “(breast, prostate, skin)”, “OSL245), individually at 20 nM or in combination (10 nM each), or a negative control siRNA (OSS2) (20 nM)” for “OSL245)”
as §1, §2

In assay [4] the test system is H157. The assay is described as above. In kind it is cell-based. Particulars: H157 (Lung); 5 txns; 8 days expt; n=3. How it is done:
as §1, with “9” for “10”, “percent cell survival” for “effects”, “(lung, brain) or normal fibroblasts” for “(breast, prostate, skin)”, “OSL245), individually at 20 nM or in combination (10 nM each), or a negative control siRNA (OSS2) (20 nM)” for “OSL245)”
as §1, §2

Assay [5] has as its system A172. The description is as above. In kind it is cell-based. Conditions: A172 (Glioblastoma); 5 txns; 7 days expt; n=3. How it is done:
as §1, with “9” for “10”, “percent cell survival” for “effects”, “(lung, brain) or normal fibroblasts” for “(breast, prostate, skin)”, “OSL245), individually at 20 nM or in combination (10 nM each), or a negative control siRNA (OSS2) (20 nM)” for “OSL245)”
as §1, §2

Assay [6] deals with U251. Described as above. Type of assay: cell-based. Conditions: U251 (Glioblastoma); 6 txns; 8 days expt; n=4. How it is done:
as §1, with “9” for “10”, “percent cell survival” for “effects”, “(lung, brain) or normal fibroblasts” for “(breast, prostate, skin)”, “OSL245), individually at 20 nM or in combination (10 nM each), or a negative control siRNA (OSS2) (20 nM)” for “OSL245)”
as §1, §2

Assay [7] concerns MCF-7. The description is as above. Type of assay: cell-based. Particulars: MCF-7 (Breast); 2 txns; 7 days expt; n=3. The protocol:
as §1, with “9” for “10”, “percent cell survival” for “effects”, “(lung, brain) or normal fibroblasts” for “(breast, prostate, skin)”, “OSL245), individually at 20 nM or in combination (10 nM each), or a negative control siRNA (OSS2) (20 nM)” for “OSL245)”
as §1, §2

In assay [8] the test system is LncAP. As to the kind of experiment: functional siRNA cell proliferation assay (CTG assay, microscopy). Conditions: LnCAP (Prostate); 4 txns; 7 days expt; n=3. Type of assay: cell-based.
Text: as §1
(§3) FIGS. 16 A-D illustrate plated cells showing the effects of siCD320 and siLRP2 on four cell lines. Cell lines representative of four types of cancers (breast, two prostate, skin) were transfected with siRNAs targeting CD320 (OSC17) or LRP2 (05L245) individually at 20 nM or in combination (10 nM each) or a negative control siRNA (OSS2) (20 nM) as indicated. Cells were repeatedly transfected for efficient toxicity as in Table 9 and then analyzed by microscopy as indicated.
(§4) Referring now to FIG. 16, treatment of breast, prostate, and skin cancer cells with an inhibitor of CD320 receptor or an inhibitor of LRP2 receptor or a combination of both in an amount effective to inhibit proliferation of the cancer cells as compared to the control cells treated with control siRNA is illustrated. […]

Assay [9] concerns MDA-MB-231. The description is as above. In kind it is cell-based. Particulars: MDA-MB-231 (Breast); 4 txns; 11 days expt; n=6.
Text: as §1
FIGS. 11A-B illustrate the effects of siCD320 and siLRP2 molar proportions on cell proliferation with different molar proportions of siRNA targeting CD320 and siRNA targeting LRP2. Cell lines representative of two types of cancers (breast, prostate) were transfected with different proportions of siRNAs targeting CD320 (OSC17) or LRP2 (05L245) (0-20 nM) or a negative control siRNA (OSS2) as indicated. […]
FIGS. 16 A-D illustrate plated cells showing the effects of siCD320 and siLRP2 on four cell lines. […] Cells were repeatedly transfected for efficient toxicity as in Table 9 and then analyzed by microscopy as indicated.
Now, referring to FIG. 10B, MDA-MB-231 triple negative breast cancer cells were plated in a 24-well plate at 20,000 cells/well. […] At day 11, cells were analyzed for cell growth by the CTG assay. […]

For assay [10], the system named is MDA-MB-435S. Described as above. Type of assay: cell-based, human. Conditions: MDA-MB-435S (Melanoma); 5 txns; 10 days expt; n=4.
Text: as §1, §3, §4

On to `COc1cccc2c1C(=O)c1c(O)c3c(c(O)c1C2=O)C[C@@](O)(C(=O)CO)C[C@@H]3O[C@H]1C[C@H](N)[C@H](O)[C@H](C)O1` [DOX], for which the “percent survival compared to negative control OSS2” value was 40% in assay [1]; 39% in [2]; 2% in [3]; 20% in assay [4]; 8% in [5]; 51% in assay [6]. Further, the “percent survival compared to negative control OSS2” value in [7] is given as 5%; in [8], 38%; in assay [9], 7%; in assay [10] it was 51%.
